Source: patent US7582447B2, “DNA encoding a testicular carnitine transporter” (Human Cell Systems, Inc., priority 2001, dated 2009)
One block for each molecule: values may come before it.

Key:
Format in all cases: cell-based
CT2 [1] = biological target: T1, CT2 (Homo sapiens, UniProt Q86VW1); assay: inhibition experiment: ^3H-carnitine uptake by oocytes injected with CT2 cRNA in the presence of unlabelled compounds; conditions: for inhibition of ^3H-carnitine transport by CT2: 50 nM ^3H-carnitine, 5 μM or 50 μM unlabelled compound, FIG. 4
T1 construct: a cRNA (RNA complementary to cDNA) was prepared in vitro from a plasmid containing the CT2cDNA; expressed in transfected cells; host or cells: Xenopus laevis oocytes injected with CT2 cRNA
T1 sequence (Q86VW1 1-543 isoform Q86VW1-2): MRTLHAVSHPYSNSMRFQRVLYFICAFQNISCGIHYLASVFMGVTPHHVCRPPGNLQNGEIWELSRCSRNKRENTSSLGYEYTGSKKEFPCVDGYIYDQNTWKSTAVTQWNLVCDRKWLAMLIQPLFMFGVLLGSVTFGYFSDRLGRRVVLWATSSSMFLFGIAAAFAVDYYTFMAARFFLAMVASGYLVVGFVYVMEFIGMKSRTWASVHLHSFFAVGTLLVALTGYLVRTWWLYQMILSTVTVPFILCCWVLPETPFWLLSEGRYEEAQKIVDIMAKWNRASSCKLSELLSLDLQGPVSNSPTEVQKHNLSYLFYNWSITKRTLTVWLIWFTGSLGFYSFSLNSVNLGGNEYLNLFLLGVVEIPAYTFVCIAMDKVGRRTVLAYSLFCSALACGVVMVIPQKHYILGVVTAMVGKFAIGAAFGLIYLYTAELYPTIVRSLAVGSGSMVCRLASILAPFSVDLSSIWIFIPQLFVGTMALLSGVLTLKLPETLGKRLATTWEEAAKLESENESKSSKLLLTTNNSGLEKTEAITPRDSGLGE
Description: (§1) The thus-obtained cRNA was injected into oocytes of a platanna in accordance with the already reported method (Sekine, T. et al., J. Biol. Chem., Vol. 272, pp. 18526-18529, 1997), and an uptake experiment by radioactive labeled L-carnitine was conducted on the oocytes.
(3) An influence to be exerted by D-Carnitine, which is an isomer of L-carnitine, on the L-carnitine transport by CT2 was studied.
(6) In order to study further on the substrate selectivity of CT2, in the ^3H-carnitine uptake experiment system by oocytes into which CT2cRNA was injected, various carnitine analogs were added to the system and its influences were investigated (inhibition experiment).
The ^3H-carnitine uptake experiment was performed in accordance with the above-described method using oocytes into which CT2cRNA was injected. 50 nM ^3H-carnitine uptake was measured in the presence or absence of 5 μM or 50 μM of various compounds (unlabelled).

CT2 [2] = biological target: T1, CT2; assay: uptake experiment of radioactive labeled substrates by oocytes injected with human CT2 cRNA; conditions: platanna oocytes injected with CT2 cRNA; FIG. 1A
Description: It is possible to confirm the ability to transport (uptake) carnitine into a cell by expressing a cRNA prepared from the obtained CT2cDNA by introducing the cRNA into an oocyte and measuring a substrate uptake into the cell employing an ordinary uptake experiment (Sekine, T et al., Biochem. Biophis. Res. Commun., Vol. 251, pp. 586-591, 1998) wherein carnitine is used as a substrate.
Next, a cRNA (RNA complementary to cDNA) was prepared in vitro from a plasmid containing the CT2cDNA by using a T7RNA polymerase (see Sekine, T., et al., J. Biol. Chem., Vol. 272, pp. 18526-18529, 1997).
as §1
A concentration dependence of the carnitine transport by CT2 was studied through an investigation of changes in amounts of uptake of various concentration carnitines by CT2. The uptake experiment of radioactive labeled carnitines was performed by using oocytes into which the CT2cRNA was injected and in accordance with the above-described method.

[3] = substrate: C[N+](C)(C)C[C@H](O)CC(=O)[O-]; assay: as above; conditions: other: Michaelis-Menten kinetics, oocytes injected with CT2cRNA; FIG. 2A

Molecule: CC[N+](CC)(CC)CC [tetraethylammnonium, tetraethyl ammonium]
inhibition of ^3H-carnitine transport by CT2 (CT2 [1]): did not show inhibition effect
uptake of radioactive labeled substrate by oocytes which expressed the CT2 (CT2 [2]): not observed

Molecule: CC(=O)OC(CC(=O)[O-])C[N+](C)(C)C (racemic) [acetyl DL-carnitine]
inhibition of ^3H-carnitine transport by CT2 (CT2 [1]): significantly inhibited

Molecule: C[N+](C)(C)C[C@@H](O)CC(=O)[O-] [D-carnitine]
inhibition of ^3H-carnitine transport by CT2 (CT2 [1]): significantly inhibited
inhibition of the L-carnitine transport by CT2 (concentration dependence) (CT2 [1]; oocytes injected with CT2 cRNA, FIG. 2B): inhibited the L-carnitine transport by CT2 in a concentration dependent manner
Ki (CT2 [1]; oocytes injected with CT2 cRNA, FIG. 2B, read-out: Ki value, inhibition of the L-carnitine transport by CT2): ~30.1 µM

Molecule: C[N+](C)(C)C[C@H](O)CC(=O)[O-] [L-carnitine]
uptake of radioactive labeled substrate by oocytes which expressed the CT2 (CT2 [2]): exhibit ^3H-L-carnitine uptake

Molecule: CC(=O)O[C@H](CC(=O)[O-])C[N+](C)(C)C [acetyl L-carnitine]
inhibition of ^3H-carnitine transport by CT2 (CT2 [1]): significantly inhibited

B1: CT2 (Homo sapiens) (protein)
chain: T1 sequence (Q86VW1 1-543 isoform Q86VW1-2)
notes: a cRNA (RNA complementary to cDNA) was prepared in vitro from a plasmid containing the CT2cDNA; expressed in transfected cells; host or cells: Xenopus laevis oocytes injected with CT2 cRNA
Km [3]: 20.3 µM

Further lines, results first:

inhibition of ^3H-carnitine transport by CT2 (CT2 [1]): significantly inhibited
Molecule: C[N+](C)(C)CC(=O)O [betaine]

inhibition of ^3H-carnitine transport by CT2 (CT2 [1]): significantly inhibited
Molecule: CCCCCCCC(=O)O[C@H](CC(=O)[O-])C[N+](C)(C)C [octanoyl L-carnitine]

inhibition of ^3H-carnitine transport by CT2 (CT2 [1]): did not show inhibition effect
uptake of radioactive labeled substrate by oocytes which expressed the CT2 (CT2 [2]): not observed
Molecule: Nc1ccc(C(=O)NCC(=O)O)cc1 [paraamino hippuric acid]
